Laboratory results: PubChem BioAssay AID248 (DTP/NCI, 2004)
Inconclusive results and toxic doses are left out.

System: L1210 leukemia ip in BDF1 mice, survival T/C
Assay: NCI In Vivo Anticancer Drug Screen. Data for tumor model L1210 Leukemia (intraperitoneal) in B6D2F1 (BDF1) mice
Conditions: endpoint: mean survival time, higher = longer survival
Procedure, shortened: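 Tumor cells were implanted, animals were treated, and survival was followed. The result divides the treated measurement by the vehicle-control measurement.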

[1] = dose: 75.0 mg/kg/injection, schedule: Q04DX003 (ip), vehicle: saline
[2] = dose: 150.0 mg/kg/injection, schedule: Q04DX003 (ip), vehicle: saline
[3] = dose: 300.0 mg/kg/injection, schedule: Q04DX003 (ip), vehicle: saline
[4] = dose: 100.0 mg/kg/injection, schedule: Q01DX001 (ip), vehicle: Klucel (hydroxypropylcellulose) (HPC)
[5] = dose: 100.0 mg/kg/injection, schedule: Q01DX009 (ip), vehicle: Klucel (hydroxypropylcellulose) (HPC)
[6] = dose: 200.0 mg/kg/injection, schedule: Q01DX001 (ip), vehicle: Klucel (hydroxypropylcellulose) (HPC)
[7] = dose: 200.0 mg/kg/injection, schedule: Q01DX009 (ip), vehicle: Klucel (hydroxypropylcellulose) (HPC)
[8] = dose: 400.0 mg/kg/injection, schedule: Q01DX009 (ip), vehicle: Klucel (hydroxypropylcellulose) (HPC)
[9] = dose: 100.0 mg/kg/injection, schedule: Q01DX009 (ip), vehicle: saline
[10] = dose: 200.0 mg/kg/injection, schedule: Q01DX009 (ip), vehicle: saline
[11] = dose: 400.0 mg/kg/injection, schedule: Q01DX009 (ip), vehicle: saline
[12] = dose: 50.0 mg/kg/injection, schedule: Q01DX009 (ip), vehicle: saline with Tween-80
[13] = dose: 100.0 mg/kg/injection, schedule: Q01DX009 (ip), vehicle: saline with Tween-80
[14] = dose: 100.0 mg/kg/injection, schedule: Q04DX003 (ip), vehicle: saline with Tween-80
[15] = dose: 200.0 mg/kg/injection, schedule: Q04DX003 (ip), vehicle: saline with Tween-80
[16] = dose: 100.0 mg/kg/injection, schedule: Q01DX001 (ip), vehicle: saline
[17] = dose: 200.0 mg/kg/injection, schedule: Q01DX001 (ip), vehicle: saline
[18] = dose: 400.0 mg/kg/injection, schedule: Q01DX001 (ip), vehicle: saline
[19] = dose: 6.25 mg/kg/injection, schedule: Q01DX009 (ip), vehicle: saline with Tween-80
[20] = dose: 25.0 mg/kg/injection, schedule: Q01DX009 (ip), vehicle: saline with Tween-80
[21] = dose: 25.0 mg/kg/injection, schedule: Q04DX003 (ip), vehicle: saline with Tween-80
[22] = dose: 400.0 mg/kg/injection, schedule: Q04DX003 (ip), vehicle: saline with Tween-80
[23] = dose: 100.0 mg/kg/injection, schedule: Q04DX003 (ip), vehicle: saline
[24] = dose: 200.0 mg/kg/injection, schedule: Q04DX003 (ip), vehicle: saline
[25] = dose: 400.0 mg/kg/injection, schedule: Q04DX003 (ip), vehicle: saline
[26] = dose: 200.0 mg/kg/injection, schedule: Q01DX009 (ip), vehicle: saline with Tween-80
[27] = dose: 400.0 mg/kg/injection, schedule: Q01DX009 (ip), vehicle: saline with Tween-80

[O-]/[N+](=C\c1ccccc1)C(c1ccccc1)c1ccccc1
T/C [1]: 97 % of control | T/C [2]: 96 % of control | T/C [3]: 89 % of control

O=C1CC(O)(c2ccccc2)C2(c3ccccc3)OC2O1 (configuration not stated)
T/C [4]: 101 % of control | T/C [5]: 96 % of control | T/C [6]: 101 % of control | T/C [7]: 93 % of control | T/C (dose: 400.0 mg/kg/injection, schedule: Q01DX001 (ip), vehicle: Klucel (hydroxypropylcellulose) (HPC)): 101 % of control | T/C [8]: 95 % of control

O=C(NCCCN1CCN(CCCNC(=O)c2cccnc2)CC1)c1cccnc1
T/C (dose: 6.25 mg/kg/injection, schedule: Q01DX009 (ip), vehicle: saline): 92 % of control | T/C (dose: 12.5 mg/kg/injection, schedule: Q01DX009 (ip), vehicle: saline): 93 % of control | T/C (dose: 25.0 mg/kg/injection, schedule: Q01DX009 (ip), vehicle: saline): 97 % of control | T/C (dose: 50.0 mg/kg/injection, schedule: Q01DX009 (ip), vehicle: saline): 101 % of control | T/C [9]: 109 % of control | T/C (dose: 150.0 mg/kg/injection, schedule: Q01DX009 (ip), vehicle: saline): 100 % of control | T/C (dose: 225.0 mg/kg/injection, schedule: Q01DX009 (ip), vehicle: saline): 109 % of control

CCOCCCCO
T/C [9]: 96 % of control | T/C [10]: 92 % of control | T/C [11]: 94 % of control

CCCC(C)CN (configuration not stated)
T/C [12]: 100 % of control | T/C [13]: 104 % of control | T/C [14]: 100 % of control | T/C [15]: 98 % of control

CC(=O)Nc1cccc(/C=C/c2nc(N)nc(N)c2-c2ccc(Cl)cc2)c1
T/C (dose: 100.0 mg/kg/injection, schedule: Q01DX001 (ip), vehicle: saline with Tween-80): 98 % of control | T/C (dose: 200.0 mg/kg/injection, schedule: Q01DX001 (ip), vehicle: saline with Tween-80): 87 % of control | T/C (dose: 400.0 mg/kg/injection, schedule: Q01DX001 (ip), vehicle: saline with Tween-80): 90 % of control

Nc1cccc(C(=O)Nc2cccc(S(=O)(=O)F)c2)c1
T/C [16]: 95 % of control | T/C [17]: 98 % of control | T/C [18]: 104 % of control

CC(=O)Nc1ccc(OC(=O)Nc2ccccc2F)cc1
T/C [5]: 98 % of control | T/C [7]: 101 % of control | T/C [8]: 106 % of control

C1=Cc2ccccc2/C1=C/c1cccc(/C=C2\C=Cc3ccccc32)c1
T/C [19]: 101 % of control | T/C (dose: 12.5 mg/kg/injection, schedule: Q01DX009 (ip), vehicle: saline with Tween-80): 97 % of control | T/C (dose: 12.5 mg/kg/injection, schedule: Q04DX003 (ip), vehicle: saline with Tween-80): 100 % of control | T/C [20]: 97 % of control | T/C [21]: 95 % of control

NC(=S)N/N=C\c1nccc2c(N)cccc12
T/C [19]: 122 % of control | T/C [12]: 187 % of control

Cc1cc2ncn(CO)c2cc1C
T/C [14]: 100 % of control | T/C [15]: 94 % of control | T/C [22]: 100 % of control

Cc1cc([N+](=O)[O-])c(N/N=C/c2ccccc2Cl)c([N+](=O)[O-])c1
T/C [5]: 101 % of control | T/C [7]: 95 % of control | T/C [8]: 95 % of control

CNC(=O)c1ccc(C(=O)NC)cc1
T/C [14]: 94 % of control | T/C [15]: 103 % of control | T/C [22]: 100 % of control

CN=C(C)C1=C(O)C(CC(=O)OC)N(C)C1=O (configuration not stated)
T/C [23]: 103 % of control | T/C [24]: 102 % of control | T/C [25]: 96 % of control

CN1CCN(C(=O)CCCCCCCCC(Br)CBr)CC1 (configuration not stated)
T/C (dose: 15.0 mg/kg/injection, schedule: Q01DX001 (ip), vehicle: saline): 103 % of control

CC(O)C[As](=O)(O)c1ccc(Cl)cc1 (configuration not stated)
T/C [21]: 94 % of control

C/C(C(=O)O)=C(\C)C(=O)O
T/C [9]: 104 % of control | T/C (dose: 100.0 mg/kg/injection, schedule: Q04DX002 (ip), vehicle: saline): 108 % of control | T/C [10]: 97 % of control | T/C (dose: 200.0 mg/kg/injection, schedule: Q04DX002 (ip), vehicle: saline): 104 % of control | T/C [11]: 108 % of control | T/C (dose: 400.0 mg/kg/injection, schedule: Q04DX002 (ip), vehicle: saline): 101 % of control

O=C1c2ccccc2C(=O)N1Cc1ccc([N+](=O)[O-])cc1
T/C (dose: 100.0 mg/kg/injection, schedule: Q01DX001 (ip), vehicle: other): 96 % of control | T/C (dose: 100.0 mg/kg/injection, schedule: Q04DX003 (ip), vehicle: Klucel (hydroxypropylcellulose) (HPC)): 103 % of control | T/C (dose: 200.0 mg/kg/injection, schedule: Q01DX001 (ip), vehicle: other): 87 % of control | T/C (dose: 200.0 mg/kg/injection, schedule: Q04DX003 (ip), vehicle: Klucel (hydroxypropylcellulose) (HPC)): 101 % of control | T/C (dose: 400.0 mg/kg/injection, schedule: Q01DX001 (ip), vehicle: other): 95 % of control | T/C (dose: 400.0 mg/kg/injection, schedule: Q04DX003 (ip), vehicle: Klucel (hydroxypropylcellulose) (HPC)): 97 % of control

Nc1nc2c(c(=O)[nH]1)CP(=S)(c1ccccc1)CC2 (configuration not stated)
T/C (dose: 100.0 mg/kg/injection, schedule: Q04DX002 (ip), vehicle: saline with Tween-80): 102 % of control | T/C (dose: 200.0 mg/kg/injection, schedule: Q04DX002 (ip), vehicle: saline with Tween-80): 102 % of control | T/C (dose: 400.0 mg/kg/injection, schedule: Q04DX002 (ip), vehicle: saline with Tween-80): 94 % of control

Cc1ccc(NC(C(=O)c2ccccc2)c2ccccc2)cc1 (configuration not stated)
T/C (dose: 300.0 mg/kg/injection, schedule: Q01DX Z (ip), vehicle: carboxymethylcellulose (CMC)): 97 % of control | T/C (dose: 450.0 mg/kg/injection, schedule: Q01DX Z (ip), vehicle: carboxymethylcellulose (CMC)): 103 % of control | T/C (dose: 675.0 mg/kg/injection, schedule: Q01DX Z (ip), vehicle: carboxymethylcellulose (CMC)): 107 % of control

Cc1ccc(S(=O)(=O)/C=C(/I)c2ccccc2)cc1
T/C [13]: 104 % of control | T/C [14]: 95 % of control | T/C [26]: 100 % of control | T/C [15]: 92 % of control | T/C [27]: 94 % of control | T/C [22]: 104 % of control

CCOC(=O)C1=C(C)CC(=O)NC1=O
T/C [16]: 115 % of control | T/C [23]: 108 % of control | T/C [17]: 114 % of control | T/C [24]: 90 % of control | T/C [18]: 111 % of control | T/C [25]: 90 % of control

COc1ccc(OCC(=O)N2CCCCC2)cc1
T/C (dose: 100.0 mg/kg/injection, schedule: Q01DX009 (ip), vehicle: carboxymethylcellulose (CMC)): 92 % of control | T/C (dose: 200.0 mg/kg/injection, schedule: Q01DX009 (ip), vehicle: carboxymethylcellulose (CMC)): 106 % of control

OC(CN1CCCCC1)c1ccncc1 (configuration not stated)
T/C [1]: 94 % of control | T/C [2]: 94 % of control | T/C [3]: 96 % of control

Cc1cc(O)n(Cc2ccccc2)c(=O)c1
T/C [20]: 96 % of control | T/C [12]: 93 % of control | T/C [13]: 93 % of control | T/C [14]: 109 % of control | T/C [26]: 94 % of control | T/C [15]: 98 % of control | T/C [22]: 90 % of control

NC(=O)Nc1cc(NC(N)=O)cc([N+](=O)[O-])c1
T/C [9]: 95 % of control | T/C [23]: 110 % of control | T/C [10]: 88 % of control | T/C [24]: 104 % of control | T/C [11]: 93 % of control | T/C [25]: 110 % of control

CCCCCCC(=O)CCC(=O)CCCCCCCC(=O)O
T/C (dose: 50.0 mg/kg/injection, schedule: Q01DX001 (ip), vehicle: Klucel (hydroxypropylcellulose) (HPC)): 103 % of control | T/C [4]: 89 % of control | T/C [6]: 100 % of control

CCC(C(=O)O)N(C)Cc1ccccc1 (configuration not stated)
T/C [13]: 92 % of control | T/C [26]: 89 % of control | T/C [27]: 89 % of control
